{"source": "paper PMC4704819", "about": "“Honey Bee Allatostatins Target Galanin/Somatostatin-Like Receptors and Modulate Learning: A Conserved Function?” (PLoS ONE, 2016)", "key": {"[1]": {"system": "honey bees (Apis mellifera)", "test": "Sucrose responsiveness assessment", "type": "in vivo", "conditions": "1μM; for sensitivity to sucrose vs control (GLM coefficient ± standard error) / sensitivity to water vs control (GLM coefficient ± standard error): injected 1h before test; for sensitivity to sucrose vs control (GLM coefficient ± standard error): sucrose 0.1–30%, ASTA p = 0.76, ASTC p = 0.55, ASTCC p = 0.13, N = 35, 49, 29 (Fig 10A); for sensitivity to water vs control (GLM coefficient ± standard error): ASTA p = 0.44, ASTC p = 0.30, ASTCC p = 0.22, N = 35, 49, 29", "description": "(§1) The vehicle for allatostatins was a saline solution made of PBS containing the protease blocker, 1 mM PMSF (prepared from a 30mM stock solution in 100% ethanol, final concentration of ethanol 3.3%).\n(§2) The allatostatins were injected into the head haemolymph after penetrating the median ocellus, either 1 hour before olfactory conditioning or sucrose responsiveness assessment, or immediately after olfactory conditioning. All injections were performed under a binocular microscope. A micromanipulator-controlled Hamilton syringe (Nanofil, equipped with a NF33BV2 needle, WPI) was used to inject approximately 200 nl of peptide solution. To make sure that the solution was properly injected, it was pushed out of the syringe so that a drop was visible and then the drop was put in contact with the haemolymph where it was quickly absorbed thanks to the respiratory movements of the bee. Any bee with excessive bleeding was discarded.\nSince sucrose was presented diluted in water, bees were given water ad libitum immediately before testing to ensure that their responses would be elicited by sucrose only. We followed a published protocol: six sucrose solutions of increasing concentration (0.1%, 0.3%, 1%, 3%, 10% and 30%) were presented in succession to the antennae, interspersed with water stimulations to avoid sensitization. For each animal, the presence or absence of a proboscis extension response to each stimulus was recorded.\n(§3) Functional data (receptor-mediated calcium, cAMP signals and binding) were plotted and regression curves were fitted using the GraphPad Prism software (San Diego, CA). The learning data were analyzed with generalized linear effects modeling (GLM) for binomial data using the R package lme4 [67]. Response levels recorded in the last conditioning trial were used to assess the effect of treatment on learning. For 1-hour memory and generalization tests, effects of allatostatin treatment were compared for each odor tested. Generalized linear mixed effects modeling (GLMM) was also used to analyze responsiveness to sucrose, with concentration and treatment as fixed factors and the bee identity and solution presented (either sucrose or water) as random factors. […] All statistics were generated in R [68]."}, "[2]": {"system": "mock-transfected HEK293 cells", "test": "Intracellular cAMP reporter assay, mock-transfected HEK293 cells (empty vector)", "type": "cell-based, human", "conditions": "CRE-luciferase, IBMX, ASTCC Fig 5F, ASTA and ASTC data not shown", "description": "For intracellular cAMP measurements, cells were bathed in trypsin EDTA and collected, then suspended in fresh DMEM. Transfections with pRK5-ApimeAstC-R, pRK5-ApimeAstA-R or empty pRK5 vector were carried out in 15 ml Falcon tubes. Transfection medium for HEK293 cells was prepared using the Lipofectamine LTX kit (Invitrogen) with 2.5 ml Opti-MEM® (Gibco), 12.5 μl Plus™ Reagent and 4 μg of ApimeASTC-R (or ApimeASTA-R, or empty) expression construct, and 2 μg of CRE(6x)-Luc plasmid. The luciferase ORF, downstream of six tandem repeats of a cyclic AMP responsive element (CRE), in front of a minimum collate promoter, was used as a reporter gene (this reporter plasmid has been used by others)\nWe followed a previousy published protocol: HEK293 cells in Dulbecco's Modified Eagles Medium nutrient mixture F12-Ham (DMEM/F12, Sigma–Aldrich) supplemented with 10% heat-inactivated fetal bovine serum (Gibco), 100 IU/ml penicillin, 100 μg/ml streptomycin (Gibco) were maintained in an incubator at 37°C with constant supply of 5% CO2, until they reached 60–80% confluence. Cells were then bathed in trypsin EDTA (Gibco) until rounded. The flask was then tapped to loosen the cells, which were subsequently washed off with 5 ml DMEM/F12. The cells were gently centrifuged at 800 rpm for 5 minutes and carefully suspended in fresh DMEM, which was divided in two for transfection with receptor constructs or empty vectors. After 5 min at room temperature, 30 μl LTX was added. After an incubation period of 30 min at room temperature, the DNA/LTX mix was added to the cells. The cells were then aliquoted (100 μl per well) into a clear bottom 96-well plate (Greiner bio-one #655090) and incubated overnight (37°C, 5% CO2).\nPrior to measuring cAMP, the cell medium was removed by carefully inverting the 96-well plate on filter paper and quickly replaced with 100 μl of DMEM/F12 without phenol red (Invitrogen), but containing 200 μM 3-isobutyl-1-methylxanthine (IBMX, Sigma–Aldrich) to prevent cAMP breakdown, as well as drugs to be tested. In each experiment, some wells were used to measure basal levels of cAMP in the cells (negative control), while others were used to measure cAMP levels in cells exposed to 10 μM forskolin analogue (NKH-477, Sigma Aldrich, positive control). […] All cells were incubated at 37°C and 5% CO2 for 3–4 h to allow transcription of the reporter gene before 100 μl of freshly reconstituted Steadylite Plus™ substrate (PerkinElmer) was added to each well. The 96-well plate was then placed in the dark for 15 min before light emission resulting from luciferase enzymatic activity was recorded. Measurements lasting 0.2 s/well were taken every 55 s for 10 cycles using a FLUOstar Omega microplate reader (BMG Labtech). Results were analyzed by means of the Omega software packages and further processed by Excel and GraphPad Prism softwares. In order to facilitate comparisons across experiments, bioluminescence levels are expressed relative to those in mock-transfected cells (transfected with the vector devoid of the receptor sequence) untreated with NKH-477, which were arbitrarily set at 100.\nTo test this prediction, we expressed the two receptors separately in HEK293 cells together with the luciferase reporter gene, downstream of the cAMP response element, CRE, but without exogenous G proteins."}, "[3]": {"system": "honey bees (Apis mellifera)", "test": "Olfactory generalization test", "type": "in vivo", "conditions": "1μM, injected immediately after conditioning, test 1h later, N = 66, 75, 72; for response to nonanal vs control (GLM coefficient ± standard error): ASTA p = 0.38, ASTC p = 0.41, ASTCC p = 0.30; for response to 1-hexanol vs control (GLM coefficient ± standard error): ASTA p = 0.91, ASTC p = 0.96, ASTCC p = 0.56; for response to 1-nonanol (CS) vs control (GLM coefficient ± standard error): ASTA p = 0.96, ASTC p = 0.37, ASTCC p = 0.10", "description": "as §1, §2\nBees that learned to respond to the conditioned stimulus (CS) at the end of conditioning were submitted to a generalization test 1h later. In addition to 1-nonanol (the CS), two novel odorants (nonanal and 1-hexanol) were presented: these were selected according to their respective high and low levels of perceptual similarity with 1-nonanol. All odorants were presented without reinforcement with sucrose. The order of odorant presentations varied across individuals, and the integrity of the reflexive response to sucrose was checked at the end of the test.\nas §3"}}, "note": "“Also recorded” adds a separate entry of the source. Where a SMILES comes first, the peptide text is derived from it. Bridges are numbered along the chain shown (N, C = ends).", "data": [{"smiles": "CC(C)[C@@H]1NC(=O)[C@H](C)NC(=O)[C@H](CC(N)=O)NC(=O)[C@H](Cc2ccccc2)NC(=O)[C@H](Cc2ccc(O)cc2)NC(=O)[C@@H](NC(=O)[C@H](CCCNC(=N)N)NC(=O)[C@H](Cc2c[nH]c3ccccc23)NC(=O)[C@H](Cc2ccc(O)cc2)NC(=O)[C@@H](NC(=O)[C@H](CCCNC(=N)N)NC(=O)CNC(=O)[C@H](CCCCN)NC(=O)[C@H](C)NC(=O)[C@H](CCC(N)=O)NC(=O)CN)C(C)C)CSSC[C@@H](C(=O)N[C@@H](Cc2ccccc2)C(=O)O)NC(=O)[C@H]([C@@H](C)O)NC1=O", "note": "[Apime-ASTCC] (H-GQAKGRVYWRCYFNAVTCF-OH; disulfide 11-18; N-terminus assumed)", "values": [{"measurement": "responsiveness to sucrose or water / feeding, in words", "setting": "[1]", "result": "responded as well to 50% sucrose stimulations as control bees"}, {"measurement": "sensitivity to sucrose vs control (GLM coefficient ± standard error)", "setting": "[1]", "result": "1.21±0.81"}, {"measurement": "sensitivity to water vs control (GLM coefficient ± standard error)", "setting": "[1]", "result": "0.90±0.74"}, {"measurement": "effect on cAMP levels (bioluminescence) in mock-transfected cells, in words", "setting": "[2]", "result": "dose-dependent response; also recorded: a similar response to this peptide was apparent also in mock-transfected cells"}, {"measurement": "effect on cAMP levels (bioluminescence) in mock-transfected cells, in words", "setting": "[2]; listed as ASTCC", "result": "this occurred also in mock-transfected cells"}, {"measurement": "response to nonanal vs control (GLM coefficient ± standard error)", "setting": "[3]", "result": "0.37±0.36"}, {"measurement": "response to 1-hexanol vs control (GLM coefficient ± standard error)", "setting": "[3]", "result": "0.20±0.34"}, {"measurement": "response to 1-nonanol (CS) vs control (GLM coefficient ± standard error)", "setting": "[3]", "result": "0.71±0.44"}]}, {"smiles": "CC(C)[C@@H]1NC(=O)[C@H](C)NC(=O)[C@H](CC(N)=O)NC(=O)[C@H](Cc2ccccc2)NC(=O)[C@H](C)NC(=O)[C@@H](NC(=O)[C@H](CCC(N)=O)NC(=O)[C@H](CCCCN)NC(=O)[C@H](Cc2c[nH]c3ccccc23)NC(=O)[C@H](Cc2ccc(O)cc2)NC(=O)[C@@H](N)CO)CSSC[C@@H](C(=O)N[C@@H](Cc2ccccc2)C(N)=O)NC(=O)[C@H](CO)NC1=O", "note": "[Apime-ASTC] (H-SYWKQCAFNAVSCF-NH2; disulfide 6-13; N-terminus assumed)", "values": [{"measurement": "responsiveness to sucrose or water / feeding, in words", "setting": "[1]", "result": "responded as well to 50% sucrose stimulations as control bees"}, {"measurement": "sensitivity to sucrose vs control (GLM coefficient ± standard error)", "setting": "[1]", "result": "0.41±0.68"}, {"measurement": "sensitivity to water vs control (GLM coefficient ± standard error)", "setting": "[1]", "result": "-0.71±0.68"}, {"measurement": "effect on cAMP levels (bioluminescence) in mock-transfected cells, in words", "setting": "[2]", "result": "No effect"}, {"measurement": "effect on cAMP levels (bioluminescence) in mock-transfected cells, in words", "setting": "[2]; listed as ASTC", "result": "failed to increase intracellular cAMP levels"}, {"measurement": "response to nonanal vs control (GLM coefficient ± standard error)", "setting": "[3]", "result": "0.29±0.36"}, {"measurement": "response to 1-hexanol vs control (GLM coefficient ± standard error)", "setting": "[3]", "result": "0.01±0.34"}, {"measurement": "response to 1-nonanol (CS) vs control (GLM coefficient ± standard error)", "setting": "[3]", "result": "0.35±0.40"}]}]}
